The values below come from patent US12310975B2, “Modulators of BCL6 proteolysis and associated methods of use” (Arvinas Operations, Inc., priority 2019, dated 2025).

By Dmax is commonly meant the greatest extent of degradation seen. A higher Dmax goes with a fuller loss of target. In general, IC50 refers to the point on the concentration scale where inhibition reaches its midpoint. A higher IC50 goes with a need for much substance.

For the assay, the target named is BCL6 (Homo sapiens (Human), UniProt P41182). Nature of the assay: Immunofluorescence high content imaging of BCL6 degradation in T47D cells. In kind it is cell-based. The conditions noted are these: T47D cells. The essentials:
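BCL6 loss was quantified by high-content imaging (10×, 4 fields/well) after PFA fixation and anti-BCL6/Alexa-488 staining with Hoechst nuclear and CellMask counterstains. Compounds were applied for 3 days to T47D breast cancer cells in RPMI-10% FBS, 11 points, 3-fold steps, top 0.1 or 1 μM.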
Regarding `CNC(=O)COc1cc2cc(Nc3nc(N4CCC(F)(CN5CCN(c6ccc7c(c6)C(=O)N(C6CCC(=O)NC6=O)C7=O)CC5)CC4)ncc3Cl)ccc2n(C)c1=O` (stereo not drawn) [compound 340, 2-{[6-({5-chloro-2-[4-({4-[2-(2,6-dioxopiperidin-3-yl)-1,3-dioxo-2,3-dihydro-1H-isoindol-5-yl]piperazin-1-yl}methyl)-4-fluoropiperidin-1-yl]pyrimidin-4-yl}amino)-1-methyl-2-oxo-1,2-dihydroquinolin-3-yl]oxy}-N-methylacetamide], the maximal degradation (Dmax) lay in the range of 50 to 70% and the IC50 was less than 10 nM.

The compound `CNC(=O)COc1cc2cc(Nc3nc(N4CCN(CC5(F)CCN(c6cccc7c6C(=O)N(C6CCC(=O)NC6=O)C7=O)CC5)CC4)ncc3Cl)ccc2n(C)c1=O` (stereo not drawn) [compound 341, 2-{[6-({5-chloro-2-[4-({1-[2-(2,6-dioxopiperidin-3-yl)-1,3-dioxo-2,3-dihydro-1H-isoindol-4-yl]-4-fluoropiperidin-4-yl}methyl)piperazin-1-yl]pyrimidin-4-yl}amino)-1-methyl-2-oxo-1,2-dihydroquinolin-3-yl]oxy}-N-methylacetamide] had a Dmax not below 70% and a half-inhibitory concentration (IC50) of less than 10 nM.

Compound `CNC(=O)COc1cc2cc(Nc3nc(N4CCC(F)(CN5CCN(c6cccc7c6C(=O)N(C6CCC(=O)NC6=O)C7=O)CC5)CC4)ncc3Cl)ccc2n(C)c1=O` (stereo not drawn) [compound 342, 2-{[6-({5-chloro-2-[4-({4-[2-(2,6-dioxopiperidin-3-yl)-1,3-dioxo-2,3-dihydro-1H-isoindol-4-yl]piperazin-1-yl}methyl)-4-fluoropiperidin-1-yl]pyrimidin-4-yl}amino)-1-methyl-2-oxo-1,2-dihydroquinolin-3-yl]oxy}-N-methylacetamide] registered a Dmax of 50 to 70% and a 50% inhibitory concentration (IC50) of less than 10 nM.

Regarding `CNC(=O)COc1cc2cc(Nc3nc(N4CCC[C@H](COc5cccc6c5C(=O)N(C5CCC(=O)NC5=O)C6=O)C4)ncc3Cl)ccc2n(C2CCCCC2)c1=O` (stereo partly drawn) [compound 343, 2-{[6-({5-chloro-2-[(3S)-3-({[2-(2,6-dioxopiperidin-3-yl)-1,3-dioxo-2,3-dihydro-1H-isoindol-4-yl]oxy}methyl)piperidin-1-yl]pyrimidin-4-yl}amino)-1-cyclohexyl-2-oxo-1,2-dihydroquinolin-3-yl]oxy}-N-methylacetamide], the Dmax lay within 50 to 70% and the 50% inhibitory concentration (IC50) was less than 10 nM.

Turning to `CCOc1cc(N2CCC(CN3CCN(c4ncc(Cl)c(Nc5ccc6c(c5)cc(OCC(=O)NC)c(=O)n6C)n4)CC3)CC2)ccc1C(=O)NC1CCC(=O)NC1=O` (stereo not drawn) [compound 344, 4-[4-({4-[5-chloro-4-({1-methyl-3-[(methylcarbamoyl)methoxy]-2-oxo-1,2-dihydroquinolin-6-yl}amino)pyrimidin-2-yl]piperazin-1-yl}methyl)piperidin-1-yl]-N-(2,6-dioxopiperidin-3-yl)-2-ethoxybenzamide], the greatest degradation seen (Dmax) is less than 50% and the concentration for half-maximal inhibition (IC50) is less than 10 nM.

With `CCCOc1cc(N2CCC(CN3CCN(c4ncc(Cl)c(Nc5ccc6c(c5)cc(OCC(=O)NC)c(=O)n6C)n4)CC3)CC2)ccc1C(=O)NC1CCC(=O)NC1=O` (stereo not drawn) [compound 345, 4-[4-({4-[5-chloro-4-({1-methyl-3-[(methylcarbamoyl)methoxy]-2-oxo-1,2-dihydroquinolin-6-yl}amino)pyrimidin-2-yl]piperazin-1-yl}methyl)piperidin-1-yl]-N-(2,6-dioxopiperidin-3-yl)-2-propoxybenzamide], the IC50 was not below 100 nM.

The compound `CNC(=O)COc1cc2cc(Nc3nc(N4C[C@@H](C)N(CC5CCN(c6ccc(C(=O)NC7CCC(=O)NC7=O)c(OC)c6)CC5)[C@@H](C)C4)ncc3Cl)ccc2n(C)c1=O` (stereo partly drawn) [compound 346, 4-(4-{[(2R,6S)-4-[5-chloro-4-({1-methyl-3-[(methylcarbamoyl)methoxy]-2-oxo-1,2-dihydroquinolin-6-yl}amino)pyrimidin-2-yl]-2,6-dimethylpiperazin-1-yl]methyl}piperidin-1-yl)-N-(2,6-dioxopiperidin-3-yl)-2-methoxybenzamide] showed a maximal degradation (Dmax) of 50 to 70% and an IC50 of less than 10 nM.

`CNC(=O)COc1cc2cc(Nc3nc(N4CCC(CN5[C@H](C)CN(c6ccc(C(=O)NC7CCC(=O)NC7=O)c(OC)c6)C[C@@H]5C)CC4)ncc3Cl)ccc2n(C)c1=O` (stereo partly drawn) [compound 347, 4-[(3R,5S)-4-({1-[5-chloro-4-({1-methyl-3-[(methylcarbamoyl)methoxy]-2-oxo-1,2-dihydroquinolin-6-yl}amino)pyrimidin-2-yl]piperidin-4-yl}methyl)-3,5-dimethylpiperazin-1-yl]-N-(2,6-dioxopiperidin-3-yl)-2-methoxybenzamide] had a Dmax of 50 to 70% and a half-maximal inhibitory concentration (IC50) of less than 10 nM.

In turn, `CNC(=O)COc1cc2cc(Nc3nc(N4CCO[C@H](COc5ccc(C(=O)NC6CCC(=O)NC6=O)cc5)C4)ncc3Cl)ccc2n(C(C)C)c1=O` (stereo partly drawn) [compound 348, 4-{[(2S)-4-[5-chloro-4-({3-[(methylcarbamoyl)methoxy]-2-oxo-1-(propan-2-yl)-1,2-dihydroquinolin-6-yl}amino)pyrimidin-2-yl]morpholin-2-yl]methoxy}-N-(2,6-dioxopiperidin-3-yl)benzamide] came in with a Dmax of less than 50% and an IC50 of 10 to 50 nM.

In turn, `CNC(=O)COc1cc2cc(Nc3nc(N4CCO[C@H](COc5ccc(C(=O)NC6CCC(=O)NC6=O)nc5)C4)ncc3Cl)ccc2n(C(C)C)c1=O` (stereo partly drawn) [compound 349, 5-{[(2S)-4-[5-chloro-4-({3-[(methylcarbamoyl)methoxy]-2-oxo-1-(propan-2-yl)-1,2-dihydroquinolin-6-yl}amino)pyrimidin-2-yl]morpholin-2-yl]methoxy}-N-(2,6-dioxopiperidin-3-yl)pyridine-2-carboxamide] gave a Dmax of less than 50% and an IC50 not below 100 nM.

`CNC(=O)COc1cc2cc(Nc3nc(N4CCO[C@H](COc5ccc(C(=O)NC6CCC(=O)NC6=O)c(F)c5)C4)ncc3Cl)ccc2n(C(C)C)c1=O` (stereo partly drawn) [compound 350, 4-{[(2S)-4-[5-chloro-4-({3-[(methylcarbamoyl)methoxy]-2-oxo-1-(propan-2-yl)-1,2-dihydroquinolin-6-yl}amino)pyrimidin-2-yl]morpholin-2-yl]methoxy}-N-(2,6-dioxopiperidin-3-yl)-2-fluorobenzamide] gave a Dmax of less than 50% and a concentration for half-maximal inhibition (IC50) of less than 10 nM.

For the compound `CNC(=O)COc1cc2cc(Nc3nc(N4CCO[C@H](COc5ccc(C(=O)NC6CCC(=O)NC6=O)c(OC)c5)C4)ncc3Cl)ccc2n(C(C)C)c1=O` (stereo partly drawn) [compound 351, 4-{[(2S)-4-[5-chloro-4-({3-[(methylcarbamoyl)methoxy]-2-oxo-1-(propan-2-yl)-1,2-dihydroquinolin-6-yl}amino)pyrimidin-2-yl]morpholin-2-yl]methoxy}-N-(2,6-dioxopiperidin-3-yl)-2-methoxybenzamide], the Dmax was less than 50% and the 50% inhibitory concentration (IC50) was 10 to 50 nM.

In the case of `CNC(=O)COc1cc2cc(Nc3nc(N4CCC(CCN5CCN(c6ccc7c(c6)C(=O)N(C6CCC(=O)NC6=O)C7=O)CC5)CC4)ncc3Cl)ccc2n(C)c1=O` (stereo not drawn) [compound 353, 2-{[6-({5-chloro-2-[4-(2-(4-[2-(2,6-dioxopiperidin-3-yl)-1,3-dioxo-2,3-dihydro-1H-isoindol-5-yl]piperazin-1-yl}ethyl)piperidin-1-yl]pyrimidin-4-yl}amino)-1-methyl-2-oxo-1,2-dihydroquinolin-3-yl]oxy}-N-methylacetamide], the Dmax lay in the range of 50 to 70% and the IC50 was less than 10 nM.

For `CNC(=O)COc1cc2cc(Nc3nc(N4CCN(CC5CCN(c6cc(F)c(C(=O)NC7CCC(=O)NC7=O)c(OC)c6)CC5)CC4)ncc3Cl)ccc2n(C)c1=O` (stereo not drawn) [compound 354, 4-[4-({4-[5-chloro-4-({1-methyl-3-[(methylcarbamoyl)methoxy]-2-oxo-1,2-dihydroquinolin-6-yl}amino)pyrimidin-2-yl]piperazin-1-yl}methyl)piperidin-1-yl]-N-(2,6-dioxopiperidin-3-yl)-2-fluoro-6-methoxybenzamide], the maximal degradation (Dmax) was in the range of 50 to 70% and the 50% inhibitory concentration (IC50) is less than 10 nM.

For the compound `CNC(=O)COc1cc2cc(Nc3nc(N4C[C@@H](C)N(CC5CCN(c6cccc(C(=O)NC7CCC(=O)NC7=O)c6F)CC5)[C@@H](C)C4)ncc3Cl)ccc2n(C)c1=O` (stereo partly drawn) [compound 355, 3-(4-{[(2R,6S)-4-[5-chloro-4-({1-methyl-3-[(methylcarbamoyl)methoxy]-2-oxo-1,2-dihydroquinolin-6-yl}amino)pyrimidin-2-yl]-2,6-dimethylpiperazin-1-yl]methyl}piperidin-1-yl)-N-(2,6-dioxopiperidin-3-yl)-2-fluorobenzamide], the Dmax lay within 50 to 70% and the IC50 was in the range of 50 to 100 nM.

Compound `CNC(=O)COc1cc2cc(Nc3nc(N4CCN(C(C)(C)C5CCN(c6cc(OC)cc(C(=O)NC7CCC(=O)NC7=O)c6F)CC5)CC4)ncc3Cl)ccc2n(C)c1=O` (stereo not drawn) [compound 356, 3-[4-(2-{4-[5-chloro-4-({1-methyl-3-[(methylcarbamoyl)methoxy]-2-oxo-1,2-dihydroquinolin-6-yl}amino)pyrimidin-2-yl]piperazin-1-yl}propan-2-yl)piperidin-1-yl]-N-(2,6-dioxopiperidin-3-yl)-2-fluoro-5-methoxybenzamide] returned a Dmax not below 70% and a concentration for half-maximal inhibition (IC50) of less than 10 nM.

In the case of `CCn1c(=O)c(OCC(=O)NC)cc2cc(Nc3nc(N4CCN([C@@H]5C[C@@H](COc6ccc7c(c6)C(=O)N(C6CCC(=O)NC6=O)C7=O)N(C)C5)CC4)ncc3Cl)ccc21` (stereo partly drawn) [compound 357, 2-({6-[(5-chloro-2-{4-[(3R,5S)-5-({[2-(2,6-dioxopiperidin-3-yl)-1,3-dioxo-2,3-dihydro-1H-isoindol-5-yl]oxy}methyl)-1-methylpyrrolidin-3-yl]piperazin-1-yl}pyrimidin-4-yl)amino]-1-ethyl-2-oxo-1,2-dihydroquinolin-3-yl}oxy)-N-methylacetamide], the maximal degradation (Dmax) was less than 50% and the half-inhibitory concentration (IC50) was 50 to 100 nM.
